This note sets out measurements from patent publication US8242151B2, “Tricyclic compounds” (Kyowa Hakko Kirin Co., Ltd., priority 2007, dated 2012).

The structures appear in SMILES notation.

For one assay, the system named is spontaneously hypertensive rats (SHR). Description: Antihypertensive action by telemetry method. The format is in vivo, rat. The note with it: oral once a day for 4 days, 24 hr averages. The source says: A telemetry transmitter was indwelled in the abdominal artery of spontaneously hypertensive rats (SHR), and the blood pressure and heart rate were monitored. The rats were acclimated and reared for 4 weeks or more, and only the rats with hypertension were used for the test. Before drug administration, the rats were grouped such that the blood pressure and heart rate of each rat would be of the same levels between the groups. A solvent (0.5% methylcellulose solution) and a test compound were repeatedly administered orally once a day for 4 days. The average systolic blood pressure for 24 hr, average diastolic blood pressure for 24 hr and average heart rate for 24 hr were calculated on each administration day.
`CCc1nc2c(C)cc(C)nc2n1Cc1ccc2c(c1)CCc1ccccc1N2C(C)c1nnn[nH]1` (stereo not drawn) [Compound 22, 2-(2-ethyl-5,7-dimethyl-3H-imidazo[4,5-b]pyridin-3-yl)methyl-5-[1-(1H-tetrazol-5-yl)ethyl]-10,11-dihydro-5H-dibenzo[b,f]azepine]: the “antihypertensive action (blood pressure, telemetry)” value is reported as “antihypertensive action”. The same measure, in the same setting: under `CCc1nc2c(Cl)cc(C)nc2n1Cc1ccc2c(c1)CCc1ccccc1N2C(C)c1nnn[nH]1` (stereo not drawn) [Compound 25, 2-(7-chloro-2-ethyl-5-methyl-3H-imidazo[4,5-b]pyridin-3-yl)methyl-5-[1-(1H-tetrazol-5-yl)ethyl]-10,11-dihydro-5H-dibenzo[b,f]azepine] stands “antihypertensive action”. As to `CCc1nc2c(C)cc(C)nc2n1Cc1ccc2c(c1)CCc1ccccc1/C2=C(/C)c1nnn[nH]1` [Compound 45, (E)-2-(2-ethyl-5,7-dimethyl-3H-imidazo[4,5-b]pyridin-3-yl)methyl-5-[1-(1H-tetrazol-5-yl)ethylidene]-10,11-dihydro-5H-dibenzo[a,d]cycloheptene], the “antihypertensive action (blood pressure, telemetry)” value is on record as “antihypertensive action”. As to `Cc1cc(C)c2nc(C3CC3)n(Cc3ccc4c(c3)CCc3ccccc3N4C(C)c3nnn[nH]3)c2n1` (stereo not drawn) [Compound 71, 2-(2-cyclopropyl-5,7-dimethyl-3H-imidazo[4,5-b]pyridin-3-yl)methyl-5-[1-(1H-tetrazol-5-yl)ethyl]-10,11-dihydro-5H-dibenzo[b,f]azepine], the “antihypertensive action (blood pressure, telemetry)” value is listed as “antihypertensive action”.

For the next assay, the target named is T1, GAL4-PPARγ chimeric nuclear receptor (human PPARγ ligand binding region) (Homo sapiens, UniProt P37231).
T1 construct: expressed in transfected cells; host or cells: HEK293EBNA cells
T1 sequence (P37231 174-475 isoform P37231-2): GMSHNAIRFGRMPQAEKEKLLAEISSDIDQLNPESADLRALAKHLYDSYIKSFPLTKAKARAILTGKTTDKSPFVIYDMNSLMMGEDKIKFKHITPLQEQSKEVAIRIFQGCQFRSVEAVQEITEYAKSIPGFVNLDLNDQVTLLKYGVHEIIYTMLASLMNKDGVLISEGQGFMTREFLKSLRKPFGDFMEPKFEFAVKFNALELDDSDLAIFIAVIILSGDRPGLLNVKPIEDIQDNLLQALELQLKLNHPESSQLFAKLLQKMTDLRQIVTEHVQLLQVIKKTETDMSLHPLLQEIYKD
Put plainly: Transactivation assay of PPARγ by transient gene transfer (GAL4-PPARγ luciferase reporter). The note with it: HEK293EBNA cells, 24 hr; concentration showing 50% of efficacy; activity relative to pioglitazone 10 μmol/L = 100%. The format is cell-based. The protocol:
The agonist activity of compound (I) to PPARγ was determined by a transactivation assay method using a chimeric nuclear receptor of a DNA binding region of a yeast transcription factor GAL4 and a PPARγ ligand binding region. Specifically, the PPARγ agonist activity of compound (I) was evaluated by the following method based on the method of Lehmann et al. (J Biol. Chem., 1995, vol. 270, page 12953).
HEK293EBNA cells cultured in Dulbecco's Modified Eagle medium (Invitrogen) containing 10 v/v % fetal calf serum (Invitrogen) were used. 30 mL of the above-mentioned cells (density: 1×10^5 cells/mL) were inoculated in a […] culture dish (Iwaki Glass), and cultured overnight. Using SuperFect Transfection Reagent (QIAGEN), a plasmid expressing a GAL4-PPARγ chimeric nuclear receptor fusing 174-475 amino acids, which are human PPARγ ligand binding region, and 1-147 amino acids, which are GAL4 DNA binding region, and a reporter plasmid expressing a GAL4 responsive luciferase were transiently introduced into the cells at a proportion of 4:1. After 5 hr from gene introduction, the cells were detached from the culture dish, and the detached cells (density: 2×10^4 cells/mL) were inoculated by 100 μL in each well of a 96 well white plate (SUMITOMO BAKELITE), and cultured overnight. The medium was removed, compound (I) diluted in various concentrations with serum-free Dulbecco's Modified Eagle medium was added by 100 μL, and the mixture was reacted under a 5% carbon dioxide gas stream (5% CO2) at 37° C. for 24 hr. On the other hand, as a positive control, 10 μmol/L of pioglitazone (100 μL) was added, and the mixture was reacted under a 5% carbon dioxide gas stream (5% CO2) at 37° C. for 24 hr. As a substrate of luciferase, 100 μL of Steady-Glo (Promega) was added to each well and the mixture was thoroughly stirred. Immediately thereafter, the chemical luminescence due to luciferase was measured using TopCount NTX (Packard).
The agonist activity (activity rate (%)) of compound (I) to PPARγ was calculated according to the following formula, as a relative activity when the agonist activity on addition of pioglitazone (10 μmol/L) was 100%.
In general terms: In a reporter assay the amount or activity of a reporter protein is the signal.
Broadly, the EC50 is the midpoint of the concentration-response curve. The low end stands for higher potency in that assay, the high end for lower potency in that assay. Turning to `CCCc1nc2c(C)cccc2n1Cc1ccc2c(c1)CCc1ccccc1N2Cc1noc(=O)[nH]1` [Compound 6, 2-(4-methyl-2-propylbenzimidazol-1-yl)methyl-5-(5-oxo-4,5-dihydro-1,2,4-oxadiazol-3-yl)methyl-10,11-dihydro-5H-dibenzo[b,f]azepine], the 50% effective concentration (EC50) came to 0.097 µM. Still for that read-out and setting: the same measure for `CCCc1nc2c(C)cccc2n1Cc1ccc2c(c1)CCc1ccccc1N2C(C)c1noc(=O)[nH]1` (stereo not drawn) [Compound 18, 2-(4-methyl-2-propylbenzimidazol-1-yl)methyl-5-[1-(5-oxo-4,5-dihydro-1,2,4-oxadiazol-3-yl)ethyl]-10,11-dihydro-5H-dibenzo[b,f]azepine]: 0.048 µM; for `CCc1nc2c(C)cc(C)nc2n1Cc1ccc2c(c1)CCc1ccccc1N2C(C)c1nnn[nH]1` (stereo not drawn) [Compound 22, 2-(2-ethyl-5,7-dimethyl-3H-imidazo[4,5-b]pyridin-3-yl)methyl-5-[1-(1H-tetrazol-5-yl)ethyl]-10,11-dihydro-5H-dibenzo[b,f]azepine]: 1 µM.

`CCc1nc2c(Cl)cc(C)nc2n1Cc1ccc2c(c1)CCc1ccccc1N2C(C)c1nnn[nH]1` (stereo not drawn) [Compound 25, 2-(7-chloro-2-ethyl-5-methyl-3H-imidazo[4,5-b]pyridin-3-yl)methyl-5-[1-(1H-tetrazol-5-yl)ethyl]-10,11-dihydro-5H-dibenzo[b,f]azepine] came in with an EC50 of 0.233 µM. This EC50 lies about 4.3-fold lower than the previous one. In turn, `CCCc1nc(CC)c(C(=O)OCC)n1Cc1ccc2c(c1)CCc1ccccc1N2C(C)c1nnn[nH]1` (stereo not drawn) [Compound 28, 2-(5-ethoxycarbonyl-4-ethyl-2-propyl-1H-imidazol-1-yl)methyl-5-[1-(1H-tetrazol-5-yl)ethyl]-10,11-dihydro-5H-dibenzo[b,f]azepine] showed a half-maximal effective concentration (EC50) of 0.325 µM. Turning to `CCCc1nc2c(C)cccc2n1Cc1ccc2c(c1)CCc1ccccc1/C2=C\c1noc(=O)[nH]1` [Compound 33, (E)-2-(4-methyl-2-propylbenzimidazol-1-yl)methyl-5-(5-oxo-4,5-dihydro-1,2,4-oxadiazol-3-yl)methylene-10,11-dihydro-5H-dibenzo[a,d]cycloheptene], the half-maximal effective concentration (EC50) amounted to 0.103 µM. Against the preceding compound, the EC50 is about 3.2-fold lower. For the compound `CCc1nc2c(C(F)(F)F)cc(C)nc2n1Cc1ccc2c(c1)CCc1ccccc1/C2=C\c1noc(=O)[nH]1` [Compound 37, (E)-2-(2-ethyl-5-methyl-7-trifluoromethyl-3H-imidazo[4,5-b]pyridin-3-yl)methyl-5-(5-oxo-4,5-dihydro-1,2,4-oxadiazol-3-yl)methylene-10,11-dihydro-5H-dibenzo[a,d]cycloheptene], the concentration for a half-maximal effect (EC50) is 0.415 µM. Compared with the last compound, the EC50 is about 4-fold higher. In turn, `CCc1nc2c(C)cc(C)nc2n1Cc1ccc2c(c1)CCc1ccccc1/C2=C(/C)c1nnn[nH]1` [Compound 45, (E)-2-(2-ethyl-5,7-dimethyl-3H-imidazo[4,5-b]pyridin-3-yl)methyl-5-[1-(1H-tetrazol-5-yl)ethylidene]-10,11-dihydro-5H-dibenzo[a,d]cycloheptene] had an EC50 of 1.09 µM. This EC50 is about 2.6-fold higher than that of the compound before. Same read-out and setting: under `CCCc1nc2c(C)cccc2n1Cc1ccc2c(c1)CCc1ccccc1/C2=C/c1noc(=O)[nH]1` [Compound 51, (Z)-2-(4-methyl-2-propylbenzimidazol-1-yl)methyl-5-(5-oxo-4,5-dihydro-1,2,4-oxadiazol-3-yl)methylene-10,11-dihydro-5H-dibenzo[a,d]cycloheptene] stands 0.094 µM; under `CCCc1nc2c(C(F)(F)F)cc(C)nc2n1Cc1ccc2c(c1)CCc1ccccc1/C2=C/c1noc(=O)[nH]1` [Compound 57, (Z)-2-(5-methyl-2-propyl-7-trifluoromethyl-3H-imidazo[4,5-b]pyridin-3-yl)methyl-5-(5-oxo-4,5-dihydro-1,2,4-oxadiazol-3-yl)methylene-10,11-dihydro-5H-dibenzo[a,d]cycloheptene], 0.44 µM.

In turn, `CCc1nc2c(C)cc(C)nc2n1Cc1ccc2c(c1)CCc1ccccc1/C2=C(\C)c1nn[nH]n1` [Compound 62, (Z)-2-(2-ethyl-5,7-dimethyl-3H-imidazo[4,5-b]pyridin-3-yl)methyl-5-[1-(1H-tetrazol-5-yl)ethylidene]-10,11-dihydro-5H-dibenzo[a,d]cycloheptene] came in with a 50% effective concentration (EC50) of 0.251 µM. Same read-out and setting: the same measure for `CCCc1nc2c(C)cccc2n1Cc1ccc2c(c1)CCc1ccccc1C2Cc1noc(=O)[nH]1` (stereo not drawn) [Compound 64, 2-(4-methyl-2-propylbenzimidazol-1-yl)methyl-5-(5-oxo-4,5-dihydro-1,2,4-oxadiazol-3-yl)methyl-10,11-dihydro-5H-dibenzo[a,d]cycloheptene]: 0.073 µM; for `Cc1cc(C)c2nc(C3CC3)n(Cc3ccc4c(c3)CCc3ccccc3N4C(C)c3noc(=O)[nH]3)c2n1` (stereo not drawn) [Compound 70, 2-(2-cyclopropyl-5,7-dimethyl-3H-imidazo[4,5-b]pyridin-3-yl)methyl-5-[1-(5-oxo-4,5-dihydro-1,2,4-oxadiazol-3-yl)ethyl]-10,11-dihydro-5H-dibenzo[b,f]azepine]: 0.053 µM.

Turning to `Cc1cc(C)c2nc(C3CC3)n(Cc3ccc4c(c3)CCc3ccccc3N4C(C)c3nnn[nH]3)c2n1` (stereo not drawn) [Compound 71, 2-(2-cyclopropyl-5,7-dimethyl-3H-imidazo[4,5-b]pyridin-3-yl)methyl-5-[1-(1H-tetrazol-5-yl)ethyl]-10,11-dihydro-5H-dibenzo[b,f]azepine], a half-maximal response (EC50) required 0.235 µM. `CCCc1nc2c(C)cccc2n1Cc1ccc2c(c1)CCc1ccccc1/C2=C(/C)c1noc(=O)[nH]1` [Compound 83, (E)-2-(4-methyl-2-propylbenzimidazol-1-yl)methyl-5-[1-(5-oxo-4,5-dihydro-1,2,4-oxadiazol-3-yl)ethylidene]-10,11-dihydro-5H-dibenzo[a,d]cycloheptene] registered an EC50 of 0.342 µM. As to `CCOc1nc2cccnc2n1Cc1ccc2c(c1)CCc1ccccc1/C2=C(/C)c1noc(=O)[nH]1` [Compound 91, (E)-2-(2-ethoxy-3H-imidazo[4,5-b]pyridin-3-yl)methyl-5-[1-(5-oxo-4,5-dihydro-1,2,4-oxadiazol-3-yl)ethylidene]-10,11-dihydro-5H-dibenzo[a,d]cycloheptene], the EC50 worked out at 1.52 µM. As for `CCc1nc2c(Cl)cc(C)nc2n1Cc1ccc2c(c1)OCc1ccccc1/C2=C\c1noc(=O)[nH]1` [Compound 106, (E)-3-(7-chloro-2-ethyl-5-methyl-3H-imidazo[4,5-b]pyridin-3-yl)methyl-11-(5-oxo-4,5-dihydro-1,2,4-oxadiazol-3-yl)methylene-6,11-dihydrodibenzo[b,e]oxepine], the EC50 amounted to 0.31 µM. `C/C(=C1/c2ccccc2COc2cc(Cn3c(C4CC4)nc4c(C)cc(C)nc43)ccc21)c1noc(=O)[nH]1` [Compound 112, (E)-3-(2-cyclopropyl-5,7-dimethyl-3H-imidazo[4,5-b]pyridin-3-yl)methyl-11-[1-(5-oxo-4,5-dihydro-1,2,4-oxadiazol-3-yl)ethylidene]-6,11-dihydrodibenzo[b,e]oxepine] displayed a concentration for a half-maximal effect (EC50) of 1.13 µM. The compound `Cc1cc(C)c2nc(C3CC3)n(Cc3ccc4c(c3)CCc3ccccc3N4Cc3nnn[nH]3)c2n1` [Compound S14, 2-(2-cyclopropyl-5,7-dimethyl-3H-imidazo[4,5-b]pyridin-3-yl)methyl-5-(1H-tetrazol-5-yl)methyl-10,11-dihydro-5H-dibenzo[b,f]azepine] yielded a concentration for a half-maximal effect (EC50) of 4.13 µM. Still for that read-out and setting: under `CCc1nc2c(C)cc(C)nc2n1Cc1ccc2c(c1)CCc1ccccc1/C2=C/c1nnn[nH]1` [Compound S17, (Z)-2-(2-ethyl-5,7-dimethyl-3H-imidazo[4,5-b]pyridin-3-yl)methyl-5-(1H-tetrazol-5-yl)methylene-10,11-dihydro-5H-dibenzo[a,d]cycloheptene] stands 1.29 µM.
